Target: T1, His6-TEV-PPARγ-(234-505) (Homo sapiens, UniProt P37231)
T1 construct: The His6-TEV-PPARγ-(234-505) protein for assay was expressed and purified; TEV cleavage site (N); made in house
T1 sequence (P37231 234-505): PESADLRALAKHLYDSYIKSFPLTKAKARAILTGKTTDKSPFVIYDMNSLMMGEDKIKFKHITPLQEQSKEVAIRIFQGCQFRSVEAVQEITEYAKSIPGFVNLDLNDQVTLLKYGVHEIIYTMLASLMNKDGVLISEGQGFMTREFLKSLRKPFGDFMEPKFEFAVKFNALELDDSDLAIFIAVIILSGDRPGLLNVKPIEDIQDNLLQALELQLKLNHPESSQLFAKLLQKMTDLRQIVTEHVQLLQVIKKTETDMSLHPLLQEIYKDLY
Assay: TR-FRET Assay to Measure Co-R Peptide Recruitment to PPARγ
Assay type: biochemical
Details: Co-R peptide recruitment to PPARγ; read-out: TR-FRET AC50
Summary of the method: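 His-tagged PPARγ (or controls) was preincubated with compound for 20 minutes at room temperature, then 5 nM anti-His terbium antibody and 200 nM FITC-labeled SMRT-ID2 corepressor peptide (final) were added for a further hour. TR-FRET signal was normalized to percent response using 500 nM T0070907 and DMSO controls.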

SMILES	AC50
O=C(NCC1CC1)C1CCN(C(=O)c2cc(-c3ccncc3)[nH]n2)CC1 [N-(cyclopropylmethyl)-1-[5-(pyridin-4-yl)-1H-pyrazole-3-carbonyl]piperidine-4-carboxamide]	> 1 µM
O=C(Nc1cccnn1)C1CCN(C(=O)c2cc(-c3ccncc3)[nH]n2)CC1 [N-(pyridazin-3-yl)-1-[5-(pyridin-4-yl)-1H-pyrazole-3-carbonyl]piperidine-4-carboxamide]	> 1 µM
O=C(NC1(c2cccc(Cl)c2)CC1)C1CCN(C(=O)c2cc(-c3ccncc3)[nH]n2)CC1 [N-[1-(3-chlorophenyl)cyclopropyl]-1-[5-(pyridin-4-yl)-1H-pyrazole-3-carbonyl]piperidine-4-carboxamide]	> 1 µM
CN(C)CCNC(=O)C1CCN(C(=O)c2cc(-c3ccncc3)[nH]n2)CC1 [N-[2-(dimethylamino)ethyl]-1-[5-(pyridin-4-yl)-1H-pyrazole-3-carbonyl]piperidine-4-carboxamide]	> 1 µM
CN(C)CCCNC(=O)C1CCN(C(=O)c2cc(-c3ccncc3)[nH]n2)CC1 [N-[3-(dimethylamino)propyl]-1-[5-(pyridin-4-yl)-1H-pyrazole-3-carbonyl]piperidine-4-carboxamide]	> 1 µM
O=C(NC1CCC(CCO)CC1)C1CCN(C(=O)c2cc(-c3ccncc3)[nH]n2)CC1 (stereo not drawn) [N-[4-(2-hydroxyethyl)cyclohexyl]-1-[5-(pyridin-4-yl)-1H-pyrazole-3-carbonyl]piperidine-4-carboxamide]	> 1 µM
Cn1cc(CNC(=O)C2CCN(C(=O)c3cc(-c4ccncc4)[nH]n3)CC2)cn1 [N-[(1-methyl-1H-pyrazol-4-yl)methyl]-1-[5-(pyridin-4-yl)-1H-pyrazole-3-carbonyl]piperidine-4-carboxamide]	> 1 µM
C[C@@H](NC(=O)C1CCN(C(=O)c2cc(-c3ccncc3)[nH]n2)CC1)c1ccc(C(C)(C)C)cc1 [N-[(1R)-1-(4-tert-butylphenyl)ethyl]-1-[5-(pyridin-4-yl)-1H-pyrazole-3-carbonyl]piperidine-4-carboxamide]	> 1 µM
C[C@@H](NC(=O)C1CCN(C(=O)c2cc(-c3ccncc3)[nH]n2)CC1)c1ccccc1 [N-[(1R)-1-phenylethyl]-1-[5-(pyridin-4-yl)-1H-pyrazole-3-carbonyl]piperidine-4-carboxamide]	> 1 µM
C[C@H](NC(=O)C1CCN(C(=O)c2cc(-c3ccncc3)[nH]n2)CC1)c1ccccc1 [N-[(1S)-1-phenylethyl]-1-[5-(pyridin-4-yl)-1H-pyrazole-3-carbonyl]piperidine-4-carboxamide]	> 1 µM
COc1cccc(CNC(=O)C2CCN(C(=O)c3cc(-c4ccncc4)[nH]n3)CC2)c1OC [N-[(2,3-dimethoxyphenyl)methyl]-1-[5-(pyridin-4-yl)-1H-pyrazole-3-carbonyl]piperidine-4-carboxamide]	> 1 µM
O=C(NCc1cc(Cl)ccc1Cl)C1CCN(C(=O)c2cc(-c3ccncc3)[nH]n2)CC1 [N-[(2,5-dichlorophenyl)methyl]-1-[5-(pyridin-4-yl)-1H-pyrazole-3-carbonyl]piperidine-4-carboxamide]	> 1 µM
COc1ccc(OC)c(CNC(=O)C2CCN(C(=O)c3cc(-c4ccncc4)[nH]n3)CC2)c1 [N-[(2,5-dimethoxyphenyl)methyl]-1-[5-(pyridin-4-yl)-1H-pyrazole-3-carbonyl]piperidine-4-carboxamide]	> 1 µM
COc1cccc(OC)c1CNC(=O)C1CCN(C(=O)c2cc(-c3ccncc3)[nH]n2)CC1 [N-[(2,6-dimethoxyphenyl)methyl]-1-[5-(pyridin-4-yl)-1H-pyrazole-3-carbonyl]piperidine-4-carboxamide]	> 1 µM
O=C(NCc1ccccc1Cl)C1CCN(C(=O)c2cc(-c3ccncc3)[nH]n2)CC1 [N-[(2-chlorophenyl)methyl]-1-[5-(pyridin-4-yl)-1H-pyrazole-3-carbonyl]piperidine-4-carboxamide]	> 1 µM
COc1c(C)cccc1CNC(=O)C1CCN(C(=O)c2cc(-c3ccncc3)[nH]n2)CC1 [N-[(2-methoxy-3-methylphenyl)methyl]-1-[5-(pyridin-4-yl)-1H-pyrazole-3-carbonyl]piperidine-4-carboxamide]	> 1 µM
COc1nc(C)cc(C)c1CNC(=O)C1CCN(C(=O)c2cc(-c3ccncc3)[nH]n2)CC1 [N-[(2-methoxy-4,6-dimethylpyridin-3-yl)methyl]-1-[5-(pyridin-4-yl)-1H-pyrazole-3-carbonyl]piperidine-4-carboxamide]	> 1 µM
COc1ccc(C)cc1CNC(=O)C1CCN(C(=O)c2cc(-c3ccncc3)[nH]n2)CC1 [N-[(2-methoxy-5-methylphenyl)methyl]-1-[5-(pyridin-4-yl)-1H-pyrazole-3-carbonyl]piperidine-4-carboxamide]	> 1 µM
COc1ccccc1CNC(=O)C1CCN(C(=O)c2cc(-c3ccncc3)[nH]n2)CC1 [N-[(2-methoxyphenyl)methyl]-1-[5-(pyridin-4-yl)-1H-pyrazole-3-carbonyl]piperidine-4-carboxamide]	> 1 µM
Cc1cc(CNC(=O)C2CCN(C(=O)c3cc(-c4ccncc4)[nH]n3)CC2)ccn1 [N-[(2-methylpyridin-4-yl)methyl]-1-[5-(pyridin-4-yl)-1H-pyrazole-3-carbonyl]piperidine-4-carboxamide]	> 1 µM
O=C(NCc1ccc2c(c1)OCO2)C1CCCN(C(=O)c2cc(-c3ccncc3)[nH]n2)C1 (stereo not drawn) [N-[(2H-1,3-benzodioxol-5-yl)methyl]-1-[5-(pyridin-4-yl)-1H-pyrazole-3-carbonyl]piperidine-3-carboxamide]	> 1 µM
O=C(NCc1ccc2c(c1)OCO2)C1CCN(C(=O)c2cc(-c3ccncc3)[nH]n2)CC1 [N-[(2H-1,3-benzodioxol-5-yl)methyl]-1-[5-(pyridin-4-yl)-1H-pyrazole-3-carbonyl]piperidine-4-carboxamide]	> 1 µM
C[C@@H](CNC(=O)C1CCN(C(=O)c2cc(-c3ccncc3)[nH]n2)CC1)c1ccccc1 [N-[(2R)-2-phenylpropyl]-1-[5-(pyridin-4-yl)-1H-pyrazole-3-carbonyl]piperidine-4-carboxamide]	> 1 µM
C[C@H](CNC(=O)C1CCN(C(=O)c2cc(-c3ccncc3)[nH]n2)CC1)c1ccccc1 [N-[(2S)-2-phenylpropyl]-1-[5-(pyridin-4-yl)-1H-pyrazole-3-carbonyl]piperidine-4-carboxamide]	> 1 µM

Other lines, results leading:

AC50	SMILES
> 1 µM	O=C(NC1CCOCC1)C1CCN(C(=O)c2cc(-c3ccncc3)[nH]n2)CC1 [N-(oxan-4-yl)-1-[5-(pyridin-4-yl)-1H-pyrazole-3-carbonyl]piperidine-4-carboxamide]
> 1 µM	CCC(CC)NC(=O)C1CCN(C(=O)c2cc(-c3ccncc3)[nH]n2)CC1 [N-(pentan-3-yl)-1-[5-(pyridin-4-yl)-1H-pyrazole-3-carbonyl]piperidine-4-carboxamide]
> 1 µM	O=C(NCc1cnc2c(c1)CCC2)C1CCN(C(=O)c2cc(-c3ccncc3)[nH]n2)CC1 [N-({5H,6H,7H-cyclopenta[b]pyridin-3-yl}methyl)-1-[5-(pyridin-4-yl)-1H-pyrazole-3-carbonyl]piperidine-4-carboxamide]
> 1 µM	O=C(NCCCN1CCOCC1)C1CCN(C(=O)c2cc(-c3ccncc3)[nH]n2)CC1 [N-[3-(morpholin-4-yl)propyl]-1-[5-(pyridin-4-yl)-1H-pyrazole-3-carbonyl]piperidine-4-carboxamide]
> 1 µM	COc1cc(-c2cc(C(=O)N3CCC(C(=O)NCc4ccc5[nH]cnc5c4)CC3)n[nH]2)c(Cl)cn1 [N-[(1H-1,3-benzodiazol-5-yl)methyl]-1-[5-(5-chloro-2-methoxypyridin-4-yl)-1H-pyrazole-3-carbonyl]piperidine-4-carboxamide]
> 1 µM	Cc1ccc([C@@H](C)NC(=O)C2CCN(C(=O)c3cc(-c4ccncc4)[nH]n3)CC2)cc1 [N-[(1R)-1-(4-methylphenyl)ethyl]-1-[5-(pyridin-4-yl)-1H-pyrazole-3-carbonyl]piperidine-4-carboxamide]
> 1 µM	Cc1ccc([C@H](C)NC(=O)C2CCN(C(=O)c3cc(-c4ccncc4)[nH]n3)CC2)cc1 [N-[(1S)-1-(4-methylphenyl)ethyl]-1-[5-(pyridin-4-yl)-1H-pyrazole-3-carbonyl]piperidine-4-carboxamide]
> 1 µM	CC[C@H](NC(=O)C1CCN(C(=O)c2cc(-c3ccncc3)[nH]n2)CC1)c1ccccc1 [N-[(1S)-1-phenylpropyl]-1-[5-(pyridin-4-yl)-1H-pyrazole-3-carbonyl]piperidine-4-carboxamide]
> 1 µM	O=C(NCc1cc(Cl)ccc1Cl)C1CCN(C(=O)c2cc(-c3cccnc3)[nH]n2)CC1 [N-[(2,5-dichlorophenyl)methyl]-1-[5-(pyridin-3-yl)-1H-pyrazole-3-carbonyl]piperidine-4-carboxamide]
> 1 µM	Cc1cc(CNC(=O)C2CCN(C(=O)c3cc(-c4ccncc4)[nH]n3)CC2)cc(C)n1 [N-[(2,6-dimethylpyridin-4-yl)methyl]-1-[5-(pyridin-4-yl)-1H-pyrazole-3-carbonyl]piperidine-4-carboxamide]
> 1 µM	O=C(NCc1ccccc1Cl)C1CCN(C(=O)c2cc(-c3cccnc3)[nH]n2)CC1 [N-[(2-chlorophenyl)methyl]-1-[5-(pyridin-3-yl)-1H-pyrazole-3-carbonyl]piperidine-4-carboxamide]
> 1 µM	O=C(NCc1ccccc1F)C1CCN(C(=O)c2cc(-c3ccncc3)[nH]n2)CC1 [N-[(2-fluorophenyl)methyl]-1-[5-(pyridin-4-yl)-1H-pyrazole-3-carbonyl]piperidine-4-carboxamide]

Source: patent publication US12606541B2, “PPARg modulators and methods of use” (Eisai R&D Management Co., Ltd., priority 2020, dated 2026)
